Numbered stars: 1 amine (or outer) side, 2 acyl side, 3 side chain; on linkers, the order of the positions; unused ones are H or OH. Square brackets hold non-standard residues; d marks the D form. Peptide text beside a SMILES is read from it. X1 = CO[C@H]([C@@H](C)C(=O)[*:2])[C@@H]1C[C@@H]2C[C@@H]2N1[*:1]; X3 = CO[C@H]([C@@H](C)C(=O)[*:2])[C@@H]1CC[C@H](C)N1[*:1]; X5 = CO[C@H]([C@@H](C)C(=O)[*:2])[C@@H]1C[C@H](F)CN1[*:1]; X2 = CO[C@H]([C@@H](C)C(=O)[*:2])[C@@H]1CC2(CC2)CN1[*:1]; X4 = C=C1C[C@@H]([C@H](OC)[C@@H](C)C(=O)[*:2])N([*:1])C1; Dolaproine = CO[C@@H]([C@@H]1CCCN1)[C@@H](C)C(=O)O; Dil = CC[C@H](C)[C@H](NC)[C@@H](CC(=O)O)OC; Phe(2-Cl) = N[C@@H](Cc1ccccc1Cl)C(=O)O; Phe(4-F) = N[C@@H](Cc1ccc(F)cc1)C(=O)O; Phe(4-Me) = Cc1ccc(C[C@H](N)C(=O)O)cc1; Phe(2-F) = N[C@@H](Cc1ccccc1F)C(=O)O; 2Thi = N[C@@H](Cc1cccs1)C(=O)O; NMeV = CN[C@H](C(=O)O)C(C)C
Assays:
[1] = system: HepG2 tumor cells; experiment: In vitro tumor cell proliferation inhibition test (CCK-8), HepG2; assay type: cell-based; conditions: Homo sapiens, HepG2, 76 hours incubation
Protocol: (§1) The objective of this experiment is to test the in vitro inhibition effect of the formula (D) according to the present invention on the proliferation of HepG2 tumor cells (human hepatocellular carcinoma cells, Chinese Academy of Sciences cell bank, No. #TCHu 72) and A549 tumor cells (human lung adenocarcinoma, Chinese Academy of Sciences cell bank, No. #TCHu150). The cells were treated with different concentrations of the compound in vitro. After 76 hours incubation, the cell proliferation was detected by CCK-8 reagent (Cell Counting Kit-8, Dojindo, No. CK04), and the activity of the compound in vitro was evaluated according to the IC50 value.
(§2) The following is an example of a method for in vitro proliferation inhibition test of HepG2 cells for the purpose of exemplifying the test of the compounds according to the present invention for the proliferation inhibitory activity on tumor cells in vitro. This method is also applicable to, but not limited to, the in vitro proliferation inhibition tests on other tumor cells.
HepG2 cells in logarithmic growth phase were washed with PBS (phosphate buffer, ThermoFisher) once, and added with 2-3 ml trypsin (0.25% trypsin-EDTA (1×), Gibico, Life Technologies) to digest for 2-3 min. Then, 10-15 ml of cell culture medium (DMEM/F12 medium, Invitrogen; 10% (v/v)) was added after the cells were completely digested. The digested HepG2 cells were eluted, and centrifuged at 1000 rpm for 3 min. The supernatant was discarded, and then 10-20 ml of cell culture medium were added to resuspend the cells to prepare a single cell suspension.
The HepG2 single cell suspension was mixed and the cell density was adjusted to 6×10^4 cells/ml with cell culture medium. The density-adjusted cell suspension was mixed uniformly and added to a 96-well cell culture plate at 100 μl/well. The plates were incubated in a 5% CO2 incubator at 37° C. for 18-20 hours.
(§3) The compound was dissolved with DMSO (dimethylsulfoxide, Shanghai Titan Technology Co., Ltd.) to prepare a storage solution having an initial concentration of 10 mM.
(§4) 10 μl of 10 mM compound was added to the wells of the first column of a U-shaped bottom 96-well plate (sample plate 1), and 90 μl of DMSO was added to each compound sample well of the first column, i.e., the stock solution was diluted 10 times as the starting point. Then, 3-fold gradient dilutions were performed, with each compound concentration […]. The diluent was DMSO solution. 60 μl of 100% DMSO was added to 12th column and 20 μl of 1 mM positive drug control was added to 11th column.
(§5) In a new U-shaped bottom 96-well plate (sample plate 2), each sample from the sample plate 1 was diluted 20 times with the complete medium. Then, in another new U-shaped bottom 96-well plate (sample plate 3), each well sample from the sample plate 2 was subjected to a final 10-fold dilution.
(§6) After the cell pre-culture was completed, the 96-well cell culture plate was removed and the supernatant was discarded. Each sample dilution in the 96-well sample plate 3 was successively added to a 96-well cell culture plate at 100 μl/well. Each compound sample was tested in duplicate at each concentration. […] After completion of the loading operation, the 96-well cell culture plate was incubated at 37° C. for about 76 hours in a 5% CO2 incubator.
(§7) The 96-well cell culture plate was taken and CCK-8 was added to each well at […]. The cell culture plate was gently pat and mixed for more than 10 times and incubated at 37° C. for 2 hours in a 5% CO2 incubator.
(§8) The 96-well cell culture plate was taken and placed in a microplate reader (PerkinElmer, VICTOR 3) and the absorbance at 450 nm was measured using the microplate reader.
(§9) Data was analyzed with Microsoft Excel and Graphpad Prism 5.

[2] = system: A549 tumor cells; experiment: In vitro tumor cell proliferation inhibition test (CCK-8), A549; assay type: cell-based; conditions: Homo sapiens, A549, 76 hours incubation
Protocol: as §1, §2, §3, §4, §5, §6, §7, §8
In accordance with the above procedure, the inhibition activity of the compound according to the present invention on the proliferation of A549 tumor cells in vitro was tested. The cell culture medium was also DMEM/F12.
as §9

| Structure (SMILES) | IC50 [1] [nM] | IC50 [2] [nM] |
| --- | --- | --- |
| CC[C@H](C)[C@@H]([C@@H](CC(=O)N1[C@H]2C[C@H]2C[C@H]1[C@H](OC)[C@@H](C)C(=O)N[C@@H](Cc1ccccc1)C(=O)O)OC)N(C)C(=O)[C@@H](NC(=O)[C@@H](NC)C(C)C)C(C)C [Compound 1, (S)-2-((2R,3R)-3-((1S,3S,5S)-2-((3R,4S,5S)-4-((S)—N,3-dimethyl-2-((S)-3-methyl-2-(methylamino)butanamido)butanamido)-3-methoxy-5-methylheptanoyl)-2-azabicyclo[3.1.0]hexan-3-yl)-3-methoxy-2-methylpropanamido)-3-phenylpropanoic acid] (H-[NMeV]V[Dil][X1]F-OH) | 8.6 | 12.8 |
| CC[C@H](C)[C@@H]([C@@H](CC(=O)N1[C@H]2C[C@H]2C[C@H]1[C@H](OC)[C@@H](C)C(=O)N[C@@H](Cc1ccccc1Cl)C(=O)O)OC)N(C)C(=O)[C@@H](NC(=O)[C@@H](NC)C(C)C)C(C)C [Compound 2, (S)-3-(2-chlorophenyl)-2-((2R,3R)-3-((1S,3S,5S)-2-((3R,4S,5S)-4-((S)—N,3-dimethyl-2-((S)-3-methyl-2-(methylamino)butanamido)butanamido)-3-methoxy-5-methylheptanoyl)-2-azabicyclo[3.1.0]hexan-3-yl)-3-methoxy-2-methylpropanamido)propanoic acid] (H-[NMeV]V[Dil][X1][Phe(2-Cl)]-OH) | 4.12 | 2.33 |
| CC[C@H](C)[C@@H]([C@@H](CC(=O)N1[C@@H](C)CC[C@H]1[C@H](OC)[C@@H](C)C(=O)N[C@@H](Cc1ccccc1)C(=O)O)OC)N(C)C(=O)[C@@H](NC(=O)[C@@H](NC)C(C)C)C(C)C [Compound 3, (S)-2-((2R,3R)-3-((2S,5S)-1-((3R,4S,5S)-4-((S)—N,3-dimethyl-2-((S)-3-methyl-2-(methylamino)butanamido)butanamido)-3-methoxy-5-methylheptanoyl)-5-methylpyrrolidin-2-yl)-3-methoxy-2-methylpropanamido)-3-phenylpropanoic acid] (H-[NMeV]V[Dil][X3]F-OH) | 9.33 | 16.2 |
| CC[C@H](C)[C@@H]([C@@H](CC(=O)N1[C@H]2C[C@H]2C[C@H]1[C@H](OC)[C@@H](C)C(=O)N[C@@H](Cc1ccccc1F)C(=O)O)OC)N(C)C(=O)[C@@H](NC(=O)[C@@H](NC)C(C)C)C(C)C [Compound 7, (S)-2-((2R,3R)-3-((1S,3S,5S)-2-((3R,4S,5S)-4-((S)—N,3-dimethyl-2-((S)-3-methyl-2-(methylamino)butanamido)butanamido)-3-methoxy-5-methylheptanoyl)-2-azabicyclo[3.1.0]hexan-3-yl)-3-methoxy-2-methylpropanamido)-3-(2-fluorophenyl)propanoic acid] (H-[NMeV]V[Dil][X1][Phe(2-F)]-OH) | 283 | 776 |
| C=C1C[C@@H]([C@H](OC)[C@@H](C)C(=O)N[C@@H](Cc2ccccc2)C(=O)O)N(C(=O)C[C@@H](OC)[C@H]([C@@H](C)CC)N(C)C(=O)[C@@H](NC(=O)[C@@H](NC)C(C)C)C(C)C)C1 [Compound 9, (S)-2-((2R,3R)-3-((S)-1-((3R,4S,5S)-4-((S)—N,3-dimethyl-2-((S)-3-methyl-2-(methylamino)butanamido)butanamido)-3-methoxy-5-methylheptanoyl)-4-methylenepyrrolidin-2-yl)-3-methoxy-2-methylpropanamido)-3-phenylpropanoic acid] (H-[NMeV]V[Dil][X4]F-OH) | 55 | 114 |
| CC[C@H](C)[C@@H]([C@@H](CC(=O)N1CC2(CC2)C[C@H]1[C@H](OC)[C@@H](C)C(=O)N[C@@H](Cc1ccccc1F)C(=O)O)OC)N(C)C(=O)[C@@H](NC(=O)[C@@H](NC)C(C)C)C(C)C [Compound 11, (S)-2-((2R,3R)-3-((S)-5-((3R,4S,5S)-4-((S)—N,3-dimethyl-2-((S)-3-methyl-2-(methylamino)butanamido)butanamido)-3-methoxy-5-methylheptanoyl)-5-azaspiro[2.4]heptan-6-yl)-3-methoxy-2-methylpropanamido)-3-(2-fluorophenyl)propanoic acid] (H-[NMeV]V[Dil][X2][Phe(2-F)]-OH) | 6.6 | 27.2 |
| CC[C@H](C)[C@@H]([C@@H](CC(=O)N1CC2(CC2)C[C@H]1[C@H](OC)[C@@H](C)C(=O)N[C@@H](Cc1ccccc1)C(=O)O)OC)N(C)C(=O)[C@@H](NC(=O)[C@@H](NC)C(C)C)C(C)C [Compound 13, (S)-2-((2R,3R)-3-((S)-5-((3R,4S,5S)-4-((S)—N,3-dimethyl-2-((S)-3-methyl-2-(methylamino)butanamido)butanamido)-3-methoxy-5-methylheptanoyl)-5-azaspiro[2.4]heptan-6-yl)-3-methoxy-2-methylpropanamido)-3-phenylpropanoic acid] (H-[NMeV]V[Dil][X2]F-OH) | 11.7 | 30.2 |
| CC[C@H](C)[C@@H]([C@@H](CC(=O)N1[C@H]2C[C@H]2C[C@H]1[C@H](OC)[C@@H](C)C(=O)N[C@@H](Cc1ccc(C)cc1)C(=O)O)OC)N(C)C(=O)[C@@H](NC(=O)[C@@H](NC)C(C)C)C(C)C [Compound 15, (S)-2-((2R,3R)-3-((1S,3S,5S)-2-((3R,4S,5S)-4-((S)—N,3-dimethyl-2-((S)-3-methyl-2-(methylamino)butanamido)butanamido)-3-methoxy-5-methylheptanoyl)-2-azabicyclo[3.1.0]hexan-3-yl)-3-methoxy-2-methylpropanamido)-3-(p-tolyl)propanoic acid] (H-[NMeV]V[Dil][X1][Phe(4-Me)]-OH) | 47.5 | 75.5 |
| CC[C@H](C)[C@@H]([C@@H](CC(=O)N1[C@H]2C[C@H]2C[C@H]1[C@H](OC)[C@@H](C)C(=O)N[C@@H](Cc1cccs1)C(=O)O)OC)N(C)C(=O)[C@@H](NC(=O)[C@@H](NC)C(C)C)C(C)C [Compound 16, (S)-2-((2R,3R)-3-((1S,3S,5S)-2-((3R,4S,5S)-4-((S)—N,3-dimethyl-2-((S)-3-methyl-2-(methylamino)butanamido)butanamido)-3-methoxy-5-methylheptanoyl)-2-azabicyclo[3.1.0]hexan-3-yl)-3-methoxy-2-methylpropanamido)-3-(thiophen-2-yl)propanoic acid] (H-[NMeV]V[Dil][X1][2Thi]-OH) | 13.9 | 53 |
| CC[C@H](C)[C@@H]([C@@H](CC(=O)N1C[C@@H](F)C[C@H]1[C@H](OC)[C@@H](C)C(=O)N[C@@H](Cc1ccccc1)C(=O)O)OC)N(C)C(=O)[C@@H](NC(=O)[C@@H](NC)C(C)C)C(C)C [Compound 44, (S)-2-((2R,3R)-3-((2S,4S)-1-((3R,4S,5S)-4-((S)—N,3-dimethyl-2-((S)-3-methyl-2-(methylamino)butanamido)butanamido)-3-methoxy-5-methylheptanoyl)-4-fluoropyrrolidin-2-yl)-3-methoxy-2-methylpropanamido)-3-phenylpropanoic acid] (H-[NMeV]V[Dil][X5]F-OH) |  | 179 |
| CC[C@H](C)[C@@H]([C@@H](CC(=O)N1CCC[C@H]1[C@H](OC)[C@@H](C)C(=O)N[C@@H](Cc1ccc(F)cc1)C(=O)O)OC)N(C)C(=O)[C@@H](NC(=O)[C@@H](NC)C(C)C)C(C)C [Compound 46, (S)-2-((2R,3R)-3-((S)-1-((3R,4S,5S)-4-((S)—N,3-dimethyl-2-((S)-3-methyl-2-(methylamino)butanamido)butanamido)-3-methoxy-5-methylheptanoyl)pyrrolidin-2-yl)-3-methoxy-2-methylpropanamido)-3-(4-fluorophenyl)propanoic acid] (H-[NMeV]V[Dil][Dolaproine][Phe(4-F)]-OH) |  | 106 |
